This is an account of results in US6576620B2, “Method of identifying partial adenosine A1 receptor agonists” (CV Therapeutics, Inc., priority 1999, dated 2003).

Read-outs that look alike come from different tables or passages of the source.

In general, Ki refers to the dissociation constant of the complex between target and ligand, obtained from inhibition or displacement. For orientation: EC50 means the concentration that produces a half-maximal response.

Test [1] relates to guinea pig isolated heart. The experiment in a line: A-V nodal conduction time / S-H interval, isolated perfused heart. The following applies: for EC50: Cavia porcellus; for S-H interval Efficacy: Table 5, 2759 = CVT-2759. The method, then:
This method evaluates the potencies of compounds to cause coronary vasodilation (A2A AdoR response) and to prolong A-V nodal conduction time (A1 AdoR response).
Rats and guinea pigs, of either sex weighing from 230 to 260 grams and 300 to 350 grams, respectively, were used in this study. Animals were anesthetized by peritoneal injection of a cocktail containing ketamine and xylazine (ketamine 100 mg, xylazine 20 mg/ml). The chest was opened and the heart quickly removed. The heart was briefly rinse in ice-cold Krebs-Henseleit solution (see below), and the aorta cannulated. The heart was then perfused at a flow rate of 10 ml/min with modified Krebs-Henseleit (K-H) solution containing NaCl 117.9, KCl 4.5, CaCl2 2.5, MgSO4 1.18, KH2PO4 1.18, pyruvate 2.0 mmol. The K-H solution (pH 7.4) was gassed continuously with 95% O2 and 5% CO2 and warmed to 35±0.50° C. The heart was electrically paced at a fixed cycle length of […] (250 beats/min) using a bipolar electrode place on the left atrium. The electrical stimuli were generated by a Grass stimulator (Model S48, W. Warwick, R.I.) and delivered through a Stimuli Isolation Unit (Model SIU5, Astro-Med, Inc., NY) as square-wave pulses of 3-msec in duration and amplitude of at least twice the threshold intensity.
A1 adenosine receptor-mediated depression of A-V nodal conduction time (negative dromotropic effect) was measured. Atrial and ventricular surface electrograms in rats and His bundle electrogram in guinea pigs, were recorded during constant atrial pacing.
The effects of compounds on coronary conductance (A2A effect) and atrioventricular conduction time or stimulus-to-His-bundle (S-H) interval (A1 effect) was then determined. Hearts were instrumented for continuous recording of coronary perfusion pressure (A2A response) and atrioventricular (A-V) conduction time or S-H interval (A1 response). In each experiment, concentration-response relationship of compounds to increase coronary conductance and to prolong A-V conduction time or S-H interval was determined. After control measurements of CPP and A-V conduction time or S-H interval were made, progressive higher concentrations of the compound studied was administered until maximal coronary vasodilation and A-V nodal conduction time or S-H interval prolongation were achieved.
Guinea pigs (Hartley) of either sex weighing 300-350 g were anaesthetized with methoxyflurane and killed by decapitation. The chest was cut open and the heart was removed quickly and rinsed in ice-cold modified Krebs-Henseleit (K-H) solution. The contents of the modified K-H solution were (in mM): NaCl 117.9, KCl 4.8, CaCl2 2.5, MgSO2 1.18, KH2PO4 1.2, Na2 EDTA 0.5, ascorbic acid 0.14, dextrose 5.5, pyruvic acid (sodium salt) 2.0, and NaHCO3 25. The K-H solution was continuously gassed with 95% oxygen and 5% CO2, and the pH was adjusted to a value of 7.4. To perfuse the heart by the Langendorff method, the transected aorta was slid onto a glass cannula and secured by a ligature. Retrograde perfusion of the aorta was initiated immediately at a constant flow of 10 ml min-′ with modified K-H solution warmed to 36.0±0.5° C. A side port in the cannula was used to connect the perfusion line to a Gould pressure transducer for measurement of coronary perfusion pressure. Coronary perfusion pressure was continuously recorded on a strip chart (Gould RS3400, Cleveland, Ohio) throughout each experiment. Coronary conductance (in ml min^−1 mmHg^−1) was calculated as the ratio of coronary flow (10 ml min^−1) to perfusion pressure (mm Hg). To facilitate the exit of fluid from the left ventricle, the leaflets of the mitral valve were trimmed with fine spring-handled scissors. When appropriate, hearts were paced at a constant rate using external electrodes. […]

Test [2] has as its system guinea pig isolated heart. The experiment in a line: Monophasic action potential duration, isolated heart. Conditions: bolus (100 μl) of 1 mM adenosine. Here is the method:
Signals were considered adequate if they were stable for at least 5-10 min and the amplitudes exceeded 10 mV. The data were digitized at 2 kHz by a DT-2801A digitizing board (Data Translation, Marlboro, Mass.) and were saved for analysis using the Snapshot data acquisition program (Snapshot Storage Scope, HEM Data Corp., Southfield, Mich.). The duration of the atrial and ventricular monophasic action potentials was measured from onset of depolarization to either 50 or 90% of repolarization.

The test system of test [3] is guinea pig isolated heart. The following applies: previous study (12); cited from earlier work.
For test [4], the system named is Adenosine A1 receptor. The experiment in a line: A1-agonist stimulated [35S]GTPγS binding to G proteins. It counts as biochemical. Conditions: for GTPγS: Table 1, compounds of Example 2, normalized to the full agonist CPA; for GTPγS (% of CPA): Table 5. The method, then: At the end of the incubation, each suspension was filtered and the retained radioactivity determined as described above.

Test [5] concerns the target T1, Adenosine A1 receptor (Cavia porcellus, UniProt P47745).
T1 construct: from tissue; host or cells: guinea pig forebrain membranes
T1 sequence (P47745 1-326): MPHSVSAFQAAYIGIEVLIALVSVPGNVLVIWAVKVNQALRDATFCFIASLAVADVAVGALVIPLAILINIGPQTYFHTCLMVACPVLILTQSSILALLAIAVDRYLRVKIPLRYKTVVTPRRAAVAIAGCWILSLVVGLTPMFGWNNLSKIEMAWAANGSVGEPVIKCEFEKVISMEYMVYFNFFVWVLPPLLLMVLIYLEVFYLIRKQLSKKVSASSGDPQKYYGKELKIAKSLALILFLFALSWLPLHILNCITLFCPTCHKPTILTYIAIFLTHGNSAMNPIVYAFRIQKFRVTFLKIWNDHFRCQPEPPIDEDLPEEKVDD
The experiment in a line: Affinity binding (Ki) of Tables 4 and 5. The method, then:
The binding affinity of a compound is evaluated in a competitive binding assay.

[6] abbreviates: Table 4, A-V nodal conduction time, read-out: EC50 A-V NCT.
Setting [7] is: Table 5, S-H interval, read-out: EC50.

For `Nc1ncnc2c1ncn2[C@@H]1O[C@H](CO)[C@@H](O)[C@H]1O` [Adenosine], the “adenosine concentration causing second-degree AV block” value in test [1] (absence of Compound 6 of Example 2) came out at 6 µM. For the same compound, the “duration of atrial monophasic action potential at 90% of repolarization” value in test [2] stood at 22 ± 5 ms. The “maximal increase of coronary conductance” value in test [3] is listed as 0.15±0.02 ml min^−1 mmHg^−1.
With `CNC(=S)OC[C@H]1O[C@@H](n2cnc3c(N[C@@H]4CCOC4)ncnc32)[C@H](O)[C@@H]1O` [Compound 45 of Example 2, 2-{6-[((3R)oxolan-3-yl)amino]purin-9-yl}(4S,2R,3R,5R)-5-{[(methylamino)thioxomethoxy]methyl}oxolane-3,4-diol], the GTPγS in the test on Adenosine A1 receptor [4] came out at 77%. Besides, the “GTPγS (% of CPA)” value in the test on Adenosine A1 receptor [4] is reported as 77 % of CPA. Further, the Ki at Adenosine A1 receptor [5] (Table 4, read-out: Ki low) stood at 400 nM; at Adenosine A1 receptor [5] (Table 5, read-out: Ki), 346 nM. Further, the EC50 came out at 600 nM in test [1] (setting [6]) and 570 nM in test [1] (setting [7]). For the same compound, the “S-H interval Efficacy” value in test [1] is reported as “Partial”.
`CCNC(=S)OC[C@H]1O[C@@H](n2cnc3c(N[C@@H]4CCOC4)ncnc32)[C@H](O)[C@@H]1O` [Compound 46 of Example 2, 2-{6-[((3R)oxolan-3-yl)amino]purin-9-yl}(4S,2R,3R,5R)-5-{[(ethylamino)thioxomethoxy]methyl}oxolane-3,4-diol]: in the test on Adenosine A1 receptor [4], the GTPγS is 77% and the “GTPγS (% of CPA)” value is given as 77 % of CPA. Further, at Adenosine A1 receptor [5] (Table 5, read-out: Ki), the Ki stood at 1110 nM. In addition, the “S-H interval Efficacy” value in test [1] is listed as “Full (Weak)”.
For the compound `CCCNC(=S)OC[C@H]1O[C@@H](n2cnc3c(N[C@@H]4CCOC4)ncnc32)[C@H](O)[C@@H]1O` [Compound 49 of Example 2, 2-{6-[((3R)oxolan-3-yl)amino]purin-9-yl}(4S,2R,3R,5R)-5-{[(propylamino)thioxomethoxy]methyl}oxolane-3,4-diol], in the test on Adenosine A1 receptor [4], the GTPγS is listed as 89% and the “GTPγS (% of CPA)” value is 89 % of CPA. For the same compound, the Ki on Adenosine A1 receptor [5] (Table 4, read-out: Ki low) worked out at 900 nM. In addition, the Ki on Adenosine A1 receptor [5] (Table 5, read-out: Ki) stood at 895 nM. In addition, the EC50 in test [1] (setting [6]) was found to be 1400 nM. Besides, the “S-H interval Efficacy” value in test [1] is recorded as “Partial”.
Take `O=C(NC1CCCC1)OC[C@H]1O[C@@H](n2cnc3c(N[C@@H]4CCOC4)nc(Cl)nc32)[C@H](O)[C@@H]1O` [Compound 69 of Example 2, [(5-{6-[((3R)oxolan-3-yl)amino]-2-chloropurin-9-yl}(3S,2R,4R,5R)-3,4-dihydroxyoxolan-2-yl)methoxy]-N-cyclopentylcarboxamide]: in the test with Adenosine A1 receptor [4], the GTPγS was 50% and the “GTPγS (% of CPA)” value is on record as 69 % of CPA. Further, the Ki at Adenosine A1 receptor [5] (Table 5, read-out: Ki) is above 1460 nM. Moreover, the “S-H interval Efficacy” value in test [1] is “Partial (= 2759)”.
As for `CNC(=S)OC[C@H]1O[C@@H](n2cnc3c(N[C@@H]4CCOC4)nc(Cl)nc32)[C@H](O)[C@@H]1O` [Compound 81 of Example 2], the “GTPγS (% of CPA)” value with Adenosine A1 receptor [4] is on record as 84 % of CPA. Also, the Ki on Adenosine A1 receptor [5] (Table 4, read-out: Ki low) is 500 nM; at Adenosine A1 receptor [5] (Table 5, read-out: Ki) it was 1110 nM. For the same compound, the EC50 in test [1] (setting [6]) came out at 600 nM; in test [1] (setting [7]) it was 530 nM. The “S-H interval Efficacy” value in test [1] is “Partial”.
Regarding `CCCNC(=S)OC[C@H]1O[C@@H](n2cnc3c(N[C@@H]4CCOC4)nc(Cl)nc32)[C@H](O)[C@@H]1O` [Compound 83 of Example 2, 2-{6-[((3R)oxolan-3-yl)amino]-2-chloropurin-9-yl}(4S,2R,3R,5R)-5-{[(propylamino)thioxomethoxy]methyl}oxolane-3,4-diol], the “GTPγS (% of CPA)” value in the test with Adenosine A1 receptor [4] is listed as 77 % of CPA. For the same compound, the Ki on Adenosine A1 receptor [5] (Table 5, read-out: Ki) was 443 nM. For the same compound, in test [1] (setting [7]), the EC50 was 610 nM. Also, the “S-H interval Efficacy” value in test [1] is “Partial”.
